# PubChem BioAssay AID489035 (Sanford-Burnham Center for Chemical Genomics, 2010)
# Active and inactive are the calls of the source. The rule behind the calls is not given here.
# Test system: Jurkat NF-kB reporter, TCR-induced, luciferase luminescence
# Assay: T-cell NF-kB luciferase reporter inhibition – Jurkat cells, luminescence, dose response (AID 489035)
row,SMILES,IC50
1,Cc1cc(-n2c(C)cc(C(=O)CSc3ncnc4ccccc34)c2C)no1,< 0.16 µM
2,CC1CC(C)CN(S(=O)(=O)c2ccc(NC(=O)c3ccc(=O)[nH]c3)cc2)C1 (stereo not given),> 80 µM (inactive)
3,COc1ccc(CS(=O)/C(Cl)=C(/Cl)C(=O)Nc2ccc(OC)nc2)cc1 (stereo not given),0.54 µM
4,COc1ccc(NC(=O)/C(Cl)=C(/Cl)S(=O)Cc2ccc(C)cc2)cn1 (stereo not given),0.32 µM
5,Cn1ncc2c(N3CCN(c4ccc(Cl)c(Cl)c4)CC3)ncnc21,7.55 µM
6,COc1cccc(CN(C)C(=O)c2ccc(OCC(=O)Nc3cccc(C(F)(F)F)c3)c(OC)c2)c1,40.5 µM (inactive)
7,Cc1cc(NC(=O)COC(=O)c2ccc(S(=O)(=O)N3CCCc4ccccc43)cc2)no1,> 80 µM (inactive)
8,Cn1ncnc2c(=O)n(C)c(=O)nc1-2,0.51 µM
9,O=C(Nc1ccc([N+](=O)[O-])cc1)Nc1ccon1,> 80 µM (inactive)
10,CCCCCOC(=O)c1[nH]c2c(c1C)C(=O)CC(c1ccco1)C2 (stereo not given),> 80 µM (inactive)
11,CCCc1cc(C(=O)N/N=C/c2ccc(CC)s2)c2ccccc2n1,13 µM
12,CCOC(=O)Nc1nc(-c2ccccc2)c(C(=O)c2ccccc2)s1,> 80 µM (inactive)
13,Cc1ccc(Nc2nc(-c3c(C)nc4ncccn34)cs2)cc1,18.7 µM
14,Clc1cccc(Cl)c1/C=N/Nc1c(Cl)cncc1Cl,> 80 µM (inactive)
15,COc1cc(/C=C/[N+](=O)[O-])ccc1OCc1cccc(C(=O)O)c1,0.55 µM
16,COc1ccc(-c2c(C#N)c(N)nc3c2CCc2ccccc2-3)cc1OC,53.6 µM (inactive)
17,CCOC(=O)c1c(C)[nH]c(C(=O)N/N=C/c2ccc(Br)cc2)c1C,9.36 µM
18,CCCCCC(=O)N[C@@H](c1ccccc1)[C@@H](O)C(=O)O[C@H]1C[C@@]2(O)[C@@H](OC(=O)c3ccccc3)C3[C@](C)(C(=O)[C@H](OC(C)=O)C(=C1C)C2(C)C)[C@@H](O)C[C@H]1OC[C@@]31OC(C)=O (stereo not given in full),32.3 µM (inactive)
19,Cc1ccc(C)c(CSc2nc3[nH]ncc3c(=O)[nH]2)c1,39.2 µM (inactive)
20,COc1ccc(C2=Nn3c(nnc3-c3ccccc3OC)SC2)cc1OC1CCCC1,15.3 µM
21,CCc1ccc(S(=O)(=O)/N=C2\C=C(Nc3ccc(O)cc3)C(=O)c3ccccc32)cc1,2.58 µM
22,Cc1ccc(NC(=O)C2=C(c3ccccc3)S(=O)(=O)CCS2(=O)=O)cc1,1.61 µM
23,Cc1c(C)c2ccc(OCC(=O)Nc3ccccn3)c(C)c2oc1=O,0.39 µM
24,CCCCCCCCCCCCCCCC[n+]1ccc(C(N)=O)cc1,1.49 µM

row,SMILES,IC50
1,COc1cc(-c2noc(C)c2/C=C/c2cccc([N+](=O)[O-])c2)cc(OC)c1OC,> 80 µM (inactive)
2,COc1ccc(-c2csc(NC(=O)C3CCN(c4ncnc5sc(C)c(C)c45)CC3)n2)cc1OC,> 80 µM (inactive)
3,Cc1ccc(COC(=O)c2cc([N+](=O)[O-])ccc2N2CCOCC2)cc1,49 µM (inactive)
4,O=C(OCCN1C(=O)c2cccc3c(N4CCOCC4)ccc(c23)C1=O)c1ccc(Cl)cc1,> 80 µM (inactive)
5,COC(=O)c1ccccc1NC(=O)Cn1c(-c2nonc2N)nc2ccccc21,43.6 µM (inactive)
6,C=C(C)[C@@]12OC3(c4ccccc4)O[C@@H]1C1[C@@H]4O[C@]4(CO)[C@@H](O)[C@]4(O)C(=O)C(C)=C[C@H]4[C@@]1(O3)[C@H](C)[C@H]2OC(=O)/C=C/C=C/c1ccccc1 (stereo not given in full),27.9 µM (inactive)
7,Cc1ccc2[nH]c(-c3cccc(F)c3)cc(=O)c2c1,> 80 µM (inactive)
8,COc1ccc(N(C(=O)c2ccccc2C)S(=O)(=O)c2cccs2)cc1,20 µM (inactive)
9,Cc1nc2c(=O)n(C)c(=O)nc-2n(C)n1,0.47 µM
10,COc1ccc(-n2nnnc2-c2ccccc2)cc1,> 80 µM (inactive)
11,COc1ccc(OC)c(CCNC(=O)Cn2nc(C)c3c(C)n(-c4ccc(C)cc4)nc3c2=O)c1,7.63 µM
12,COc1cc(NS(C)(=O)=O)ccc1Nc1c2ccccc2nc2ccccc12,9.5 µM
13,Cc1ccc2nc(-c3ccc4c(c3)OCCO4)cn2c1,1.01 µM
14,CCn1cc(C(=O)NC2CCCc3c2cnn3-c2cccc(C)c2C)cn1 (stereo not given),> 80 µM (inactive)
15,COc1cc(-c2noc(C)c2C#Cc2ccsc2)cc(OC)c1OC,> 80 µM (inactive)
16,COc1ccc(NS(=O)(=O)c2cc(-c3cnc(C4CC4)o3)ccc2C)cc1,27 µM (inactive)
17,COc1ccc(C(C(=O)NC2CCCCC2)N(C(=O)CCl)c2ccc(C)cc2)cc1 (stereo not given),0.33 µM
18,O=C(Sc1cccc2cccnc12)c1ccc(F)cc1,0.99 µM
19,CCOC(=O)c1[nH]c(C)c(C(=O)Nc2ccc(C)cc2C)c1C,> 80 µM (inactive)
20,COc1ccc(/C=c2/sc3n(c2=O)C(c2ccccc2OC)C2=C(N=3)c3ccccc3CC2)cc1O (stereo not given),22.6 µM (inactive)
21,Cc1ccc(NC(=O)CSc2nc(-c3ccco3)cc(C(F)(F)F)n2)cc1C,> 80 µM (inactive)
22,CCCN1C=CC(=C2C(=O)c3ccccc3C2=O)C=C1,0.52 µM
23,CCC(O)C1CCN(C(=O)c2cc(COc3ccc4ncccc4c3)on2)CC1 (stereo not given),0.69 µM
24,C[C@@H]1O[C@@H](O[C@H]2C[C@@H](O)[C@]3(CO)[C@@H]4C(CC[C@]3(O)C2)[C@@]2(O)CC[C@H](C3COC(=O)C3)[C@@]2(C)C[C@H]4O)[C@H](O)[C@H](O)[C@H]1O (stereo not given in full),23.3 µM (inactive)

row,SMILES,IC50
1,CCOC(=O)c1[nH]c(C=O)c(C(=O)OCC)c1C,> 80 µM (inactive)
2,CCCC(=O)Nc1nc2ccc(NC(=O)c3c(F)c(F)c(OC)c(F)c3F)cc2s1,11.5 µM
3,Cn1cc(C(=O)N/N=C/c2c(O)ccc3ccccc23)ccc1=O,1.89 µM
4,CC(=O)O[C@H]1C(=O)[C@@]2(C)[C@H]([C@H](OC(=O)c3ccccc3)[C@]3(O)C[C@H](OC(=O)[C@H](O)[C@@H](NC(=O)c4ccccc4)c4ccccc4)C(C)=C1C3(C)C)[C@]1(OC(C)=O)CO[C@@H]1C[C@@H]2O,11 µM
5,O=C(Nc1ccc(S(=O)(=O)N2CCCC2)cc1)c1ccc(CN2CCc3ccccc3C2)cc1,> 80 µM (inactive)
6,CC1C/C(=C/c2ccncc2)C(=O)/C(=C/c2ccncc2)C1 (stereo not given),1.39 µM
7,COc1cccc(CN(C)C(=O)c2cc(COc3ccc4ncccc4c3)on2)c1,12.5 µM
8,CCCCC(=O)NC(c1ccc(N(CC)CC)cc1)c1ccc2cccnc2c1O (stereo not given),8.89 µM
9,COC(=O)c1nn(-c2ccc3c(c2)CCN3C(C)=O)cc1O,1.14 µM
10,O=C(NCc1cccs1)C1CCN(c2ccc(S(=O)(=O)N3CCOCC3)cc2Cl)CC1,25.6 µM (inactive)
11,Cc1noc(C)c1CSc1nc2ccccc2c(=O)n1-c1ccccc1,30.8 µM (inactive)
12,COc1cccc(N2CCN(C(=O)c3ccc(CS(=O)c4ccccc4C)o3)CC2)c1 (stereo not given),16.7 µM
13,c1ccc(-c2noc(-c3ccc4ccccc4c3)n2)nc1,0.46 µM
14,O=C(Nc1ccc(S(=O)(=O)Nc2ccc(F)cc2)cc1)c1ccc(CN2CCOCC2)cc1,40.8 µM (inactive)
15,O=C(NNc1ccnc2cc(Cl)ccc12)C1CCCCC1,> 80 µM (inactive)
16,Cc1ccc(S(=O)(=O)Cc2ccc(C(=O)N3CCN(c4cccc(C)c4C)CC3)o2)cc1,15.8 µM
17,O=C(NC(Nc1nc2ccc([N+](=O)[O-])cc2s1)(C(F)(F)F)C(F)(F)F)c1ccccc1,> 80 µM (inactive)
18,C=CCOC(=O)c1[nH]c2c(c1C)C(=O)CC(c1ccco1)C2 (stereo not given),> 80 µM (inactive)
19,C=C1C(=O)O[C@H]2C[C@@H](C)[C@@H]3C=CC(=O)[C@@]3(C)C[C@H]12,1.26 µM
20,Cc1ccc(C(=O)Nc2ncc(Cc3ccc(SC(F)F)cc3)s2)cc1,> 80 µM (inactive)
21,COC(=O)c1cn(NC(=O)c2cc([N+](=O)[O-])ccc2F)c(=O)c2ccccc12,0.46 µM
22,Cc1cc(C(=O)N2CC=C(c3ccccc3)CC2)c2ccccc2n1,75.7 µM (inactive)
23,CCCC1=Nc2cc(C(=O)NCCCOCC)ccc2Sc2ccccc21,24 µM (inactive)
24,CCOc1ccc(S(=O)(=O)NCc2ccccn2)cc1NC(=O)c1ccccc1F,> 80 µM (inactive)

row,SMILES,IC50
1,CC(=O)Nc1ccc(S(=O)(=O)N2c3ccccc3C(C)=CC2(C)C)cc1,24.4 µM (inactive)
2,Cc1ccc(C(=O)N/N=C/c2ccc([N+](=O)[O-])s2)cc1,1.26 µM
3,COC(=O)c1[nH]c2c(c1C)C(=O)CC(c1cccc(OC)c1)C2 (stereo not given),> 80 µM (inactive)
4,CCC(=O)NC(c1cccs1)c1ccc2cccnc2c1O (stereo not given),60.4 µM (inactive)
5,CCCOc1ccccc1C1CC(=O)Nc2cc3c(cc21)OCO3 (stereo not given),> 80 µM (inactive)
6,O=C(Nc1nc2ccc(S(=O)(=O)N3CCCC3)cc2s1)C1CCCCC1,> 80 µM (inactive)
7,O=[N+]([O-])c1ccc(Sc2ccc(Cl)c(Cl)c2)nc1,2.99 µM
8,Cc1cc(C)c2nc(C)cc(N/N=C/c3ccc(O)cc3)c2c1,2.9 µM
9,CC(=O)c1ccc(Oc2cc(C)nc(-n3nc(C)cc3C)n2)cc1,13.5 µM
10,COc1ccc(C(=O)c2ccc(N(C)C)cc2)c(OC)c1,> 80 µM (inactive)
11,O=C(CSc1nnc(Cn2nnc3ccccc32)o1)N(Cc1ccc(F)cc1)c1ccccc1,> 80 µM (inactive)
12,CCC(C)C(=O)N[C@@H](c1ccccc1)[C@@H](O)C(=O)O[C@H]1C[C@@]2(O)[C@@H](OC(=O)c3ccccc3)C3[C@](C)(C(=O)[C@H](OC(C)=O)C(=C1C)C2(C)C)[C@@H](O)C[C@H]1OC[C@@]31OC(C)=O (stereo not given in full),> 80 µM (inactive)
13,O=C(Nc1ccc(N2CCCCC2)cc1)c1ccccn1,0.46 µM
14,Cc1nc(Sc2nnnn2C)c2c3c(sc2n1)CCC3,5.19 µM
15,COc1cc(NS(=O)(=O)c2ccc(C)cc2)c2ncccc2c1,2.12 µM
16,O=C(Nc1ccncc1)C1CCCN(S(=O)(=O)c2cccc3cccnc23)C1 (stereo not given),> 80 µM (inactive)
17,CC1(C)Cc2nc3sc4c(=O)n(CC(=O)NCc5ccccc5)cnc4c3cc2CO1,> 80 µM (inactive)
18,COc1ccc2c(C)nc(Nc3nc(-c4ccccc4)cc(=O)[nH]3)nc2c1,> 80 µM (inactive)
19,C=CC[C@@H](CC/C=C/C=C/CC/C=C\[C@@H]1CSC([C@@H]2C[C@@H]2C)=N1)OC,50.8 µM (inactive)
20,Cc1ccc(/C=N/NC(=O)C2COc3ccccc3O2)s1 (stereo not given),> 80 µM (inactive)
21,COc1cc(-c2noc(C)c2-c2ccc3[nH]ccc3c2)cc(OC)c1OC,25.3 µM (inactive)
22,COc1cc2c(c(OC)c1OC)-c1ccc(OC)c(=O)cc1[C@@H](NC(C)=O)CC2,> 80 µM (inactive)
23,COc1ccccc1C(=O)Nc1nc2ccccc2s1,0.77 µM
